BindingDB's records for patent US20260049071 (Beyang Therapeutics Co., 2026)

What was measured:
Assay in all cases: Testing of the Ability of Compounds to Inhibit VEGFR and EGFR Kinase
[1] = target: Epidermal growth factor receptor (Homo sapiens, UniProt P00533)
Method: (§1) This assay directly monitored the ability of compounds to inhibit kinase phosphorylation by measuring non-phosphorylated and phosphorylated substrates in kinase reactions by using Mobility Shift Assays/IMAP™ analysis. Test Protocol and Procedures: Add the kinase and DTT to 1× kinase buffer to form a 2.5× kinase solution; transfer 10 μL of 2.5× kinase solution to a 384-well reaction plate and add 1× kinase buffer to negative control wells. Incubate the plate for 10 min at room temperature; add FAM-labeled peptides, MgCl2, ATP and other reagents to 1× kinase buffer to form a 2.5× substrate solution; transfer 10 μL of the above 2.5× substrate solution to the 384-well reaction plate; incubate the plate at 28° C. for different times,and add 25 μL of stop solution to the 384-well reaction plate to stop the reaction. Read the conversion ratio data on CaliperEZ Reader II.

[2] = target: Vascular endothelial growth factor receptor 1 (Homo sapiens, UniProt P17948)
Method: as §1

[3] = target: Vascular endothelial growth factor receptor 3 (Homo sapiens, UniProt P35916)
Method: as §1

Epidermal growth factor receptor, sequence (P00533 whole entry): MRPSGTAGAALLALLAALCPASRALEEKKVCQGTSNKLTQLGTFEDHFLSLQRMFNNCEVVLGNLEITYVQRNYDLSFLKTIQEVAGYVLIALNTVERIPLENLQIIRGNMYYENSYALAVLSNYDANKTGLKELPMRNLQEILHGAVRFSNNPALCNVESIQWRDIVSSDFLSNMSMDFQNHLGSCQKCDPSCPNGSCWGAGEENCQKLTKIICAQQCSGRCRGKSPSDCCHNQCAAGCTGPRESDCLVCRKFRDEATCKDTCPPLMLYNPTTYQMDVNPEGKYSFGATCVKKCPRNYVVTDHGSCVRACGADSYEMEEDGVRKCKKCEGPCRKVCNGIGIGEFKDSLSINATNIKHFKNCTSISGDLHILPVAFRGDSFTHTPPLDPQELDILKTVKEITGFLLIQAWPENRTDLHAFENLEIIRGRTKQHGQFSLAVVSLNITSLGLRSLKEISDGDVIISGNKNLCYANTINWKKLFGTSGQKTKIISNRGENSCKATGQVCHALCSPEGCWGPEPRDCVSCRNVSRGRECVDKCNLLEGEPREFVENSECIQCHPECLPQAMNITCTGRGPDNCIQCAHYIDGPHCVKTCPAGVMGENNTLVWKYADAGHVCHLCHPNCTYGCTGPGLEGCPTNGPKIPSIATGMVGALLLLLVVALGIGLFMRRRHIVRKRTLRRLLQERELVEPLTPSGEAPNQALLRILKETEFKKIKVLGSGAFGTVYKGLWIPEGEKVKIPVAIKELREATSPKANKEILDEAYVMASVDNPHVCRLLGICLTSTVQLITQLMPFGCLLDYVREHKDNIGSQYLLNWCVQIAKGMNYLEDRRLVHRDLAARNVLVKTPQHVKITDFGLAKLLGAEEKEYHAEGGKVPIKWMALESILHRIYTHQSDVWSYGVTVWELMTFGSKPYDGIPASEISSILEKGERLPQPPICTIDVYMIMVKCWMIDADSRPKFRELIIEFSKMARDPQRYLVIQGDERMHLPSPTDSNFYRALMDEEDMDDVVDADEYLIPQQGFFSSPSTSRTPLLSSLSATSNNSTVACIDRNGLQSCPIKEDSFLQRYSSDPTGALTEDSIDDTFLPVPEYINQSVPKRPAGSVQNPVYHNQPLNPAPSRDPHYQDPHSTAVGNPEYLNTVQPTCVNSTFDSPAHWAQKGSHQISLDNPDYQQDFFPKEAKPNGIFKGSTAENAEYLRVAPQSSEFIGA
Vascular endothelial growth factor receptor 1, sequence (P17948 whole entry): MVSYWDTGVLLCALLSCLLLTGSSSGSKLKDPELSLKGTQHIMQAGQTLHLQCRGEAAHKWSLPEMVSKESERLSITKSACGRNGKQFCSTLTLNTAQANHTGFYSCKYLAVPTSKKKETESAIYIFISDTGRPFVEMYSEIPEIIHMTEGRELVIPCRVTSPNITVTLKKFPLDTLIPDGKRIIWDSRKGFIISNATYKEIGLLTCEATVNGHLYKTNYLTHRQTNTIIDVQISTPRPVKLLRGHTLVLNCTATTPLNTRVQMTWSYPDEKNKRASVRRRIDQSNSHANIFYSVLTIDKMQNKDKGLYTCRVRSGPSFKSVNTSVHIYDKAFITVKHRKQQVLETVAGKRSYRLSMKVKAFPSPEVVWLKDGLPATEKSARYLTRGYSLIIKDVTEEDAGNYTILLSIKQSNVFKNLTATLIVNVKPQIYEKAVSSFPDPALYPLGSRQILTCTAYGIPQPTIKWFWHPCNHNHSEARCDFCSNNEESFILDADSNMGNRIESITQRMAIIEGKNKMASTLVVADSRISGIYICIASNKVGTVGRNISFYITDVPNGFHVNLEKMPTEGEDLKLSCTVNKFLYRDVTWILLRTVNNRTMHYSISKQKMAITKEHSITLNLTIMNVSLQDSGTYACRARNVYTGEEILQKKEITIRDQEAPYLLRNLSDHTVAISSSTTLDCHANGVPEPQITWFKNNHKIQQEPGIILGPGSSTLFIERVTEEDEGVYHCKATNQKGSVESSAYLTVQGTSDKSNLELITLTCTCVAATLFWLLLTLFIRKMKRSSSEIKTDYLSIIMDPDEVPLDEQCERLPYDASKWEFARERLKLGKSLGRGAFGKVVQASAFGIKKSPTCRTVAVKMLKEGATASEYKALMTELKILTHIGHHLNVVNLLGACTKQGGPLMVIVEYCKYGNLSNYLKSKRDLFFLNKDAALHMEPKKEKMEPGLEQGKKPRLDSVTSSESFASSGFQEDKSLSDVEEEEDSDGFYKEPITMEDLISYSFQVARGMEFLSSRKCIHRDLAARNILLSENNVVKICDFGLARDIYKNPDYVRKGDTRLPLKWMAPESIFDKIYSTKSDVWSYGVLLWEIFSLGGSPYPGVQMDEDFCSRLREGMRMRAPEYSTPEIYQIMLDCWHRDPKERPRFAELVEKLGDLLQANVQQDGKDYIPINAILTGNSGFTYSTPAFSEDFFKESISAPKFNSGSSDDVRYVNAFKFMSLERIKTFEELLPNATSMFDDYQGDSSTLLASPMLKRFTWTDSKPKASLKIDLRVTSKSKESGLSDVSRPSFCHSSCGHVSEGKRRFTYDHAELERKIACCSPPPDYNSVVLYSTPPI
Vascular endothelial growth factor receptor 3, sequence (P35916 whole entry): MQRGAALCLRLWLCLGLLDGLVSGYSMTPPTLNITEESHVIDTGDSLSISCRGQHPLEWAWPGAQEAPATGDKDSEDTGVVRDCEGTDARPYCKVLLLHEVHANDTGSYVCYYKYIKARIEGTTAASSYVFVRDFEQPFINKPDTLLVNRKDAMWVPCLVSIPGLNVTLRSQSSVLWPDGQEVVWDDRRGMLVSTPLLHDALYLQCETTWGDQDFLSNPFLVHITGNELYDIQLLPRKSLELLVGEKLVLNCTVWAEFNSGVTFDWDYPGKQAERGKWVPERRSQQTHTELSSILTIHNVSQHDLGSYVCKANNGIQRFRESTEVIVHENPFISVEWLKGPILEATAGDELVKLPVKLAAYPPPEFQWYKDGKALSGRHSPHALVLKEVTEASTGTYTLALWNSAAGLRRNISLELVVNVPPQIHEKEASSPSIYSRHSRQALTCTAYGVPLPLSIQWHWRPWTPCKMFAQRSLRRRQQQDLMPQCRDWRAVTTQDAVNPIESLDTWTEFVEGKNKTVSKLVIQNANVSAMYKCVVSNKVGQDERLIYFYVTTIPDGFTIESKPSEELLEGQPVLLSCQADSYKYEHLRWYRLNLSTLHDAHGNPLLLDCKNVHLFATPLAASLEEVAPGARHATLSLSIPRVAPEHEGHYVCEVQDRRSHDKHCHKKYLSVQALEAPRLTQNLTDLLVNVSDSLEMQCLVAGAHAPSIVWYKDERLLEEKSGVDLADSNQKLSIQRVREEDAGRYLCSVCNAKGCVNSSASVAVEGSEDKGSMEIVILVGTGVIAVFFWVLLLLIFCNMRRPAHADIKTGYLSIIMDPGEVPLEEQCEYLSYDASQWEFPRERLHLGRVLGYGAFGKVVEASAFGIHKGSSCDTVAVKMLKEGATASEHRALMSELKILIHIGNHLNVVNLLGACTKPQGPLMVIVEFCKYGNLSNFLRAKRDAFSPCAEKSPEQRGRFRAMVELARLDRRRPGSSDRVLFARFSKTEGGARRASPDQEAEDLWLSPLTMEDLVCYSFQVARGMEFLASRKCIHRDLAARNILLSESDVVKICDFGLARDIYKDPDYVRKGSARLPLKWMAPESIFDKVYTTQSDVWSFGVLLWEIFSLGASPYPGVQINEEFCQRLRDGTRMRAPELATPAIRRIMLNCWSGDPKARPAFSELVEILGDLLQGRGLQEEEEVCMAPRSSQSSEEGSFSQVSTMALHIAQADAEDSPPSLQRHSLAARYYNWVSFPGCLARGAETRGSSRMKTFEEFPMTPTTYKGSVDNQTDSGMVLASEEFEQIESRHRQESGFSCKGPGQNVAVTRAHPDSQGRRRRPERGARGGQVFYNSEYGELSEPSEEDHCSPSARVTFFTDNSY

IC50 [1]: in the range around 33 µM
IC50 [2]: 0.001 to 0.01 µM
IC50 [3]: 0.01 to 0.1 µM
SMILES: NC(=O)c1ccccc1Sc1ccc2c(/C=C/c3cnn(CCCN4CCCC4)c3)n[nH]c2c1 [US20260049071, No. I-44]
